pKd: −log10 of the molar value. Ends that are not written are not given here.
Key:
insulin producing cells = details: in vitro, equimolar quantities; cited from earlier work
INS-1 or MIN6 cells = test: Thapsigargin-induced apoptosis, caspase-3 activity assay; format: cell-based; details: thapsigargin 1 microM, 16 h
Description: FIG. 6. Inhibition of apoptosis by SDF-1 in INS-1 and MIN-6 cells is reversed by knock-down of betacatenin. A. Western blot analysis of extracts from MIN6 cells that were mock treated, thapsigargin-treated (1 μM) and/or siRNA transfected (0.25 mg/ml), by using anti-serum against cleaved caspase-3 (upper panel), anti-serum against cleaved PARP (middle panel) and actin antibody (lower panel) as a loading control. B. Caspase-3 activity (fluorescence/mg proteinx105) of INS-1 or MIN6 cells mock treated, thapsigargin-treated (1 μM) and/or siRNA transfected (0.25 mg/ml). Results are presented as mean±SD for n=3 independent experiments, All values are relative to the first (leftmost) bar. […] Quantification of apoptotic cells is expressed as percent apoptotic cells relative to the total cells counted (lower left panel). […]
Thapsigargin-induced apoptosis in INS-1 or MIN6 cells For western immuoblot assay (Cell Signaling), MIN6 cells were seeded into 6 well plates then treated with 1 microM thapsigargin or DMSO control for 16 h and apoptotic activity was measured by Western immunoblotting using antisera specific for cleaved (active) caspase-3 (Cell signaling #9661) and cleaved (active) PARP (Cell signaling #9548). For caspase-3 assay, INS-1 cells or MIN-6 cells in 24-well plates were treated with 1 microM thapsigargin or DMSO for 16 hand caspase-3 activity was determined (Molecular Probes). […]

INS-1 or Min6 beta cells = test: SDF-1 mRNA by QPCR in injured beta cells; format: cell-based; details: 3 to 20 hrs
Description: FIG. 15. […] INS-1 or Min6 beta cells were treated for 3 to 20 hrs with the stress/apoptosis inducers, thapsigargin, streptozotocin (STZ), or mixtures of cytokines (listed at the bottom of the right lower panel). SDF-1 mRNA was measured in cell extracts by QPCR. Cytokines also stimulate the secretion of SDF-1 Protein (see new FIG. 21).

mice = test: Infusion of GLP-1(28-36) amide nonapeptide into mice, islet size; format: in vivo; details: infusions into mice, preliminary
Excerpt: (§1) The inventors have done preliminary studies using GLP-1(28-36), a nine amino acid peptide (the “nonapeptide”) cleaved from the C-terminus of GLP-1 (SEQ ID NO:4). In the studies, the inventors used the peptide having an arginine amide at the C-terminus (FIAWLVKGR-amide). […] The nonapeptide works both when applied to cells in vitro/ex vivo and when infused into mice in vivo.

pancreatic beta cell = test: Preliminary studies of nonapeptide on pancreatic beta cell survival and growth; format: cell-based; details: preliminary data
Excerpt: as §1

Wnt signaling [1] = test: Wnt signaling luciferase reporter assay (TOPflash/FOPflash) in INS-1 cells; format: cell-based
Description: Wnt signaling is indicated by the value of TOPflash luciferase activity divided by FOPflash activity. A. Time course of the TOPflash:FOPflash ratio of INS-1 cell treated with 1 nM SDF-1. B. Ratio of TOPflash to FOPflash activity in INS-1 cells treated with increasing doses of SDF-1. C. […] All values are relative to the value of the untreated INS-1 cells. Data are normalized for transfection efficiency by co-transfected beta-galactosidase and represent means±S.D. of three experiments.
All values are relative to the first (leftmost) bar. Statistical significance is depicted as * (p<0.05) when compared with control values (leftmost bar). Data are normalized for transfection efficiency by co-transfected beta-galactosidase and represent means±S.D. of three experiments.
Wnt Signaling Luciferase Reporter Assay (TOPflash) INS-1 cells were plated into 24-well dishes 24 hr before transfection with TOPflash or the mutant, control reporter, FOPflash (1 microg/well) using LipofectAMINE2000 (Invitrogen). Various concentrations of SDF-1 or AMD3100 were then added to the culture medium 24 h following transfection for the indicated period of time. In studies in which inhibitors were used, LY294002 (50 microM), PD98059 (10 microM) or SH-5 (10 nM) were added concomitantly with SDF-1. In studies in which wild-type (wt), dominant-negative (dn) or contitutively-active (ca) forms of kinase were used, dnTCF7L2, dnGSK3beta, caGSK3beta, dnAkt, or caAkt (0.5 microg/well) was cotransfected with TOPflash. Luciferase activity in transfected cells was determined with a luciferase assay kit (Promega).
We examined SDF-1 induction of Wnt signaling using a Wnt signaling reporter assay (TOPflash/FOPflash). The TOPflash and FOPflash constructs contain the luciferase reporter either under the control of consensus TCF7L2-binding sites or mutated TCF7L2-binding sites, respectively. Luciferase activity was measured during 4 hr after addition of 1 nM SDF-1 (FIG. 3A).

[2] = system: INS-1 cells and mouse islets; test: GLP-1 pro-proliferative and cytoprotective actions; format: cell-based; details: tentative
INS-1 cells [3] = details: serum-free, SDF-1 2 nM, AMD3100 16 nM-2 uM, day 6
Description: INS-1 cells were plated in 96 well plates in control medium (no serum) or a medium containing 2% serum.

Wnt signaling [4] = test: Wnt signaling reporter (beta-galactosidase) in isolated islets of TopGal mouse; format: cell-based; details: added with SDF-1, isolated TopGal mouse islets
Description: A. Isolated islets express reporter-driven beta-galactosidase. The dark regions mark the expression of beta-galactosidase, an indicator of the activation of the Wnt signaling reporter LacZ transgene. […] B. Polymerase chain reaction showing changes in beta-galactosidase mRNA levels in islets shown in panel A.
Isolated mouse pancreatic islets Mouse islets were isolated (Lacy PE (1994) Pancreatic islet cell transplant. Mt Sinai J. Med. 61:23-31.) from the pancreata of TopGal reporter mice transgenic for the LEF-LacZ Wnt signaling reporter (DasGupta R, Fuchs E (1999) Development. 1999 126:4557-4568.). Freshly isolated islets were treated for 4 hrs with SDF-1 with and without the addition of the Galphai/o inhibitor pertussis toxin (PTX) or the CXCR4 antagonist AMD3100. Betagalactosidase activity was determined by incubation of the islets with X-gal for 6 hrs.
Polymerase chain reaction analyses of betagalactosidase mRNA levels in isolated mouse islets Islets from TopGal mice were harvested after treatments with SDF-1, SDF-1+AMD3100, and SDF-1+pertussis toxin. RNA was extracted and beta galactosidase mRNA levels were measured by PCR using a SYBR Green QPCR kit (Stratagene) with the primers as described in Liu Z, Habener J F 2008 Glucagon-like Peptide-1 Activation of TCF7L2-dependent Wnt Signaling Enhances Pancreatic Beta Cell Proliferation. […]

INS-1 cells [5] = test: ATP-lite cell viability assay, serum deprivation, SDF-1 with AMD3100; format: cell-based; details: serum-free, SDF-1 2 nM
Description: ATP lite cell viability assay: INS-1 cells were plated in 96 well plates. SDF-1 (2 nM) and AMD3100 were added at day 0, 2, 4 and cell viability was measured at day 6 using relative light units (RLU) as compared to control. N=6.
INS-1 cells were plated in 96 well plates in control medium (no serum) or a medium containing 2% serum. SDF-1 (2 nM) and SDF-1 (2 nM) along with various concentrations of AMD3100 (2 uM, 0.4 uM, 80 nM, 16 nM) were added to different cell groups incubated in serum-free medium at days 0, 2, 4, and cell viability was measured at day 6 using relative light units (RLU) as compared to control.

Exendin-4: GLP-1 agonist peptide from Gila Monster salivary glands, SEQ ID NO: 3
potency at causing insulin release (insulin producing cells): more potent than GLP-1

C/C=C(/C)C(=O)O[C@H]1C(C)=C2[C@H]([C@@H]1OC(=O)CCCCCCC)[C@@](C)(OC(C)=O)C[C@H](OC(=O)CCC)[C@@]1(O)[C@H]2OC(=O)[C@@]1(C)O [Thapsigargin, reference compound]
induction of caspase-3 activity (INS-1 or MIN6 cells): threefold | SDF-1 expression (mRNA) in injured beta cells (INS-1 or Min6 beta cells): induces SDF-1 expression

FIAWLVKGR-amide (FIAWLVKGR-NH2) [GLP-1(28-36) amide nonapeptide]
islet size in mice (mice): enhances islet size | pancreatic beta cell survival and growth (pancreatic beta cell): profound effects

COc1cccc(-c2cc(=O)c3ccccc3o2)c1N [PD98059]
effect on SDF-1-stimulated TOPflash activity (Wnt signaling [1]; LY294002 50 microM, PD98059 10 microM, SH-5 10 nM): does not affect | effect on basal level TOPflash activity (Wnt signaling [1]; no SDF-1): do not affect

glucoincretin hormone, SEQ ID NO: 2, HAEGTFTSDVSSYLEGQAAKEFIAWLVKGRG [GLP-1]
pKd [2]: 9.00 | cytoprotective actions (concentration) [2]: 10 nM

c1cc(CN2CCCNCCNCCCNCC2)ccc1CN1CCCNCCNCCCNCC1 [AMD3100]
effect on SDF-1 activation of luciferase activity (TOPflash/FOPflash) (Wnt signaling [1]; coincubation with increasing amounts): antagonized | effect on SDF-1 mediated insulin production (INS-1 cells [3]): partially and dose-dependently blocked | effect on SDF-1-induced Wnt signaling response in TopGal islets (Wnt signaling [4]): inhibition | effect on SDF-1 mediated cell survival (INS-1 cells [5]; AMD3100 16 nM-2 uM): partially and dose-dependently blocked | effective concentration for blocking SDF-1 mediated cell survival (INS-1 cells [5]; day 6): around 1 uM

CN(N=O)C(=O)N[C@H]1C(O)O[C@H](CO)[C@@H](O)[C@@H]1O (mixture of isomers) [streptozotocin]
SDF-1 expression (mRNA) in injured beta cells (INS-1 or Min6 beta cells): induces SDF-1 expression

Reference: patent US20120053119A1, “THERAPEUTIC METHOD FOR INCREASING PANCREATIC BETA CELL MASS” (priority 2009, published 2012)
